# PubChem BioAssay (NCI)
#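 Grown in 96-well plates, cells were treated for 48 hours with each compound at five concentrations. Insufficient inhibition: endpoint recorded as highest concentration tested. GI50 = concentration required for 50% inhibition of growth. The concentration for full growth arrest is given as TGI.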
# Key:
# Assay in all cases: DTP human tumour cell line panel, 48 h
# OVCAR-3 ovarian = system: OVCAR-3 ovarian
# OVCAR-8 ovarian = system: OVCAR-8 ovarian
# UACC-257 melanoma = system: UACC-257 melanoma
# ACHN renal = system: ACHN renal
# MOLT-4 leukemia = system: MOLT-4 leukemia
# UO-31 renal = system: UO-31 renal
# SF-295 CNS = system: SF-295 CNS
# SK-MEL-5 melanoma = system: SK-MEL-5 melanoma
# HOP-62 NSCLC = system: HOP-62 NSCLC
# NCI-H522 lung = system: NCI-H522 lung
# SF-539 CNS = system: SF-539 CNS
# NCI-H226 lung = system: NCI-H226 lung
# RPMI-8226 leukemia = system: RPMI-8226 leukemia
# DU-145 prostate = system: DU-145 prostate
# CCRF-CEM leukemia = system: CCRF-CEM leukemia
# BT-549 breast = system: BT-549 breast
# SK-MEL-28 melanoma = system: SK-MEL-28 melanoma
# SR leukemia = system: SR leukemia
# SW-620 colon = system: SW-620 colon
# SF-268 CNS = system: SF-268 CNS
# 786-0 renal = system: 786-0 renal
# IGROV1 ovarian = system: IGROV1 ovarian
# UACC-62 melanoma = system: UACC-62 melanoma
# MDA-MB-231 breast = system: MDA-MB-231 breast
# MALME-3M melanoma = system: MALME-3M melanoma
# NCI/ADR-RES ovarian = system: NCI/ADR-RES ovarian
# SK-OV-3 ovarian = system: SK-OV-3 ovarian
# COLO 205 colon = system: COLO 205 colon
# M14 melanoma = system: M14 melanoma
# TK-10 renal = system: TK-10 renal
# LOX IMVI melanoma = system: LOX IMVI melanoma
# SNB-19 CNS = system: SNB-19 CNS
# CAKI-1 renal = system: CAKI-1 renal
# MCF7 breast = system: MCF7 breast
# SNB-75 CNS = system: SNB-75 CNS
# SK-MEL-2 melanoma = system: SK-MEL-2 melanoma
# K-562 leukemia = system: K-562 leukemia
# HCT-116 colon = system: HCT-116 colon
# PC-3 prostate = system: PC-3 prostate
# HOP-92 NSCLC = system: HOP-92 NSCLC
# RXF 393 renal = system: RXF 393 renal
# A549 NSCLC = system: A549 NSCLC
# HL-60(TB) leukemia = system: HL-60(TB) leukemia
# U251 CNS = system: U251 CNS
# MDA-MB-435 = system: MDA-MB-435
# HCT-15 colon = system: HCT-15 colon
# HCC-2998 colon = system: HCC-2998 colon
# NCI-H23 lung = system: NCI-H23 lung
# NCI-H460 lung = system: NCI-H460 lung
# T-47D breast = system: T-47D breast
# OVCAR-5 ovarian = system: OVCAR-5 ovarian
# HT29 colon = system: HT29 colon
# A498 renal = system: A498 renal
# SN12C renal = system: SN12C renal
# OVCAR-4 ovarian = system: OVCAR-4 ovarian
# EKVX NSCLC = system: EKVX NSCLC
# HS 578T breast = system: HS 578T breast
# KM12 colon = system: KM12 colon
smiles,measurement,setting,value
N/C(=N\C(N)=N\c1nc2ccccc2s1)c1ccnc(Br)c1,GI50,OVCAR-3 ovarian,3.46 µM
same,TGI,OVCAR-3 ovarian,18.9 µM
same,GI50,OVCAR-8 ovarian,10.3 µM
same,TGI,OVCAR-8 ovarian,> 100 µM
same,GI50,UACC-257 melanoma,> 100 µM
same,TGI,UACC-257 melanoma,> 100 µM
same,GI50,ACHN renal,5.22 µM
same,TGI,ACHN renal,> 100 µM
same,GI50,MOLT-4 leukemia,4.35 µM
same,TGI,MOLT-4 leukemia,> 100 µM
same,GI50,UO-31 renal,3.56 µM
same,TGI,UO-31 renal,84 µM
same,GI50,SF-295 CNS,4.25 µM
same,TGI,SF-295 CNS,> 100 µM
same,GI50,SK-MEL-5 melanoma,3.49 µM
same,TGI,SK-MEL-5 melanoma,> 100 µM
same,GI50,HOP-62 NSCLC,3.65 µM
same,TGI,HOP-62 NSCLC,57.2 µM
same,GI50,NCI-H522 lung,3.22 µM
same,TGI,NCI-H522 lung,> 100 µM
same,GI50,SF-539 CNS,4.67 µM
same,TGI,SF-539 CNS,95 µM
same,GI50,NCI-H226 lung,15.9 µM
same,TGI,NCI-H226 lung,> 100 µM
same,GI50,RPMI-8226 leukemia,4.29 µM
same,TGI,RPMI-8226 leukemia,> 100 µM
same,GI50,DU-145 prostate,15.2 µM
same,TGI,DU-145 prostate,> 100 µM
same,GI50,CCRF-CEM leukemia,3.7 µM
same,TGI,CCRF-CEM leukemia,> 100 µM
same,GI50,BT-549 breast,4.32 µM
same,TGI,BT-549 breast,> 100 µM
same,GI50,SK-MEL-28 melanoma,8.7 µM
same,TGI,SK-MEL-28 melanoma,> 100 µM
same,GI50,SR leukemia,2.9 µM
same,TGI,SR leukemia,> 100 µM
same,GI50,SW-620 colon,3.91 µM
same,TGI,SW-620 colon,> 100 µM
same,GI50,SF-268 CNS,5.88 µM
same,TGI,SF-268 CNS,> 100 µM
same,GI50,786-0 renal,5.88 µM
same,TGI,786-0 renal,> 100 µM
same,GI50,IGROV1 ovarian,3.63 µM
same,TGI,IGROV1 ovarian,> 100 µM
same,GI50,UACC-62 melanoma,4.47 µM
same,TGI,UACC-62 melanoma,> 100 µM
same,GI50,MDA-MB-231 breast,9.13 µM
same,TGI,MDA-MB-231 breast,> 100 µM
same,GI50,MALME-3M melanoma,6.22 µM
same,TGI,MALME-3M melanoma,> 100 µM
same,GI50,NCI/ADR-RES ovarian,2.62 µM
same,TGI,NCI/ADR-RES ovarian,7.95 µM
same,GI50,SK-OV-3 ovarian,5.95 µM
same,TGI,SK-OV-3 ovarian,> 100 µM
same,GI50,COLO 205 colon,11 µM
same,TGI,COLO 205 colon,> 100 µM
same,GI50,M14 melanoma,3.39 µM
same,TGI,M14 melanoma,> 100 µM
same,GI50,TK-10 renal,52 µM
same,TGI,TK-10 renal,> 100 µM
same,GI50,LOX IMVI melanoma,4.27 µM
same,TGI,LOX IMVI melanoma,> 100 µM
same,GI50,SNB-19 CNS,7.1 µM
same,TGI,SNB-19 CNS,> 100 µM
same,GI50,CAKI-1 renal,3.33 µM
same,TGI,CAKI-1 renal,> 100 µM
same,GI50,MCF7 breast,5.49 µM
same,TGI,MCF7 breast,> 100 µM
same,GI50,SNB-75 CNS,2.33 µM
same,TGI,SNB-75 CNS,6.89 µM
same,GI50,SK-MEL-2 melanoma,3.81 µM
same,TGI,SK-MEL-2 melanoma,> 100 µM
same,GI50,K-562 leukemia,3.46 µM
same,TGI,K-562 leukemia,> 100 µM
same,GI50,HCT-116 colon,3.28 µM
same,TGI,HCT-116 colon,> 100 µM
same,GI50,PC-3 prostate,4.61 µM
same,TGI,PC-3 prostate,> 100 µM
same,GI50,HOP-92 NSCLC,7.02 µM
same,TGI,HOP-92 NSCLC,> 100 µM
same,GI50,RXF 393 renal,2.81 µM
same,TGI,RXF 393 renal,27.1 µM
same,GI50,A549 NSCLC,22.1 µM
same,TGI,A549 NSCLC,> 100 µM
same,GI50,HL-60(TB) leukemia,3.02 µM
same,TGI,HL-60(TB) leukemia,> 100 µM
same,GI50,U251 CNS,5.63 µM
same,TGI,U251 CNS,48.9 µM
same,GI50,MDA-MB-435,2.1 µM
same,TGI,MDA-MB-435,7.32 µM
same,GI50,HCT-15 colon,3.92 µM
same,TGI,HCT-15 colon,> 100 µM
same,GI50,HCC-2998 colon,66 µM
same,TGI,HCC-2998 colon,> 100 µM
same,GI50,NCI-H23 lung,14.2 µM
same,TGI,NCI-H23 lung,> 100 µM
same,GI50,NCI-H460 lung,4.33 µM
same,TGI,NCI-H460 lung,> 100 µM
same,GI50,T-47D breast,8.01 µM
same,TGI,T-47D breast,> 100 µM
same,GI50,OVCAR-5 ovarian,62.3 µM
same,TGI,OVCAR-5 ovarian,> 100 µM
same,GI50,HT29 colon,3.55 µM
same,TGI,HT29 colon,> 100 µM
same,GI50,A498 renal,5.14 µM
same,TGI,A498 renal,41 µM
same,GI50,SN12C renal,5.57 µM
same,TGI,SN12C renal,> 100 µM
same,GI50,OVCAR-4 ovarian,7.83 µM
same,TGI,OVCAR-4 ovarian,> 100 µM
same,GI50,EKVX NSCLC,30.4 µM
same,TGI,EKVX NSCLC,> 100 µM
same,GI50,HS 578T breast,3.76 µM
same,TGI,HS 578T breast,46 µM
same,GI50,KM12 colon,5.19 µM
same,TGI,KM12 colon,> 100 µM
